In paper PMC6001364 (European journal of medicinal chemistry, 2018):
Like-named read-outs stand apart in the source and are kept apart here.

What was measured:
WT HIV-1 strain (IIIB) [1] = type: cell-based; settings: ratio of CC50/EC50, MT-4 cells
[2] = test system: K103 N + Y181C double mutant HIV-1 strain (RES056); experiment: Anti-HIV-1 activity against double mutant RES056 in MT-4 cells, MTT method; type: cell-based; settings: for SI RES056: ratio of CC50/EC50, MT-4 cells, values given with symbol X1; for EC50 RES056: MT-4 cells, MTT method
wild-type HIV-1 (NL4-3) = experiment: Inhibition of wild-type HIV-1; type: cell-based; settings: ratio of CC50/EC50, TZM-bl cells
[3] = test system: HIV-1 Y181C mutant strain; type: cell-based
[4] = test system: HIV-1 E138K mutant strain; experiment: microbe, parasite or virus in culture; type: cell-based
[5] = test system: HIV-1 L100I mutant strain; experiment: microbe, parasite or virus in culture; type: cell-based
[6] = test system: HIV-1 Y188L mutant strain; experiment: microbe, parasite or virus in culture; type: cell-based; settings: for EC50: Human immunodeficiency virus 1, MT4, read-out: EC50 Y188L
[7] = Cytotoxicity in mock-infected MT-4 cells, MTT method; type: cell-based; settings: human
[8] = test system: HIV-1 K103 N mutant strain; type: cell-based; settings: ratio of CC50/EC50, MT-4 cells
[9] = test system: HIV-1 F227L + V106A mutant strain; experiment: microbe, parasite or virus in culture; type: cell-based
WT HIV-1 strain (IIIB) [10] = settings: cited from earlier work
MT-4 cells = settings: cited from earlier work
[11] = test system: K103 N + Y181C double mutant HIV-1 strain (RES056); settings: cited from earlier work
HIV-1 RT = HIV-1 RT (Human immunodeficiency virus type 1 group M subtype B, UniProt P03366); settings: read-out: IC50 against HIV-1 RT; cited from earlier work

Cc1cc(C)c(Oc2cc(Nc3ccc(C#N)cc3)ncc2C(=O)NCc2cn(Cc3ccccc3C)nn2)c(C)c1 [3a1, N-((1-(2-methylbenzyl)-1H-1,2,3-triazol-4-yl)methyl)-6-((4-cyanophenyl)amino)-4(mesityloxy)nicotinamide]
SI IIIB (WT HIV-1 strain (IIIB) [1]): ≥2132

Cc1cc(C)c(Oc2cc(Nc3ccc(C#N)cc3)ncc2C(=O)NCc2cn(Cc3ccccc3F)nn2)c(C)c1 [3a2, N-((1-(2-fluorobenzyl)-1H-1,2,3-triazol-4-yl)methyl)-6-((4-cyanophenyl)amino)-4-(mesityloxy)nicotinamide]
SI IIIB (WT HIV-1 strain (IIIB) [1]): >2348 | SI RES056 [2]: X1

Cc1cc(C)c(Oc2cc(Nc3ccc(C#N)cc3)ncc2C(=O)NCc2cn(Cc3ccccc3Cl)nn2)c(C)c1 [3a3, N-((1-(2-chlorobenzyl)-1H-1,2,3-triazol-4-yl)methyl)-6-((4-cyanophenyl)amino)-4-(mesityloxy)nicotinamide]
SI IIIB (WT HIV-1 strain (IIIB) [1]): ≥1807

Cc1cc(C)c(Oc2cc(Nc3ccc(C#N)cc3)ncc2C(=O)NCc2cn(Cc3ccccc3C#N)nn2)c(C)c1 [3a4, N-((1-(2-cyanobenzyl)-1H-1,2,3-triazol-4-yl)methyl)-6-((4-cyanophenyl)amino)-4-(mesityloxy)nicotinamide]
SI IIIB (WT HIV-1 strain (IIIB) [1]): >5589 | SI RES056 [2]: X1

Cc1cc(C)c(Oc2cc(Nc3ccc(C#N)cc3)ncc2C(=O)NCc2cn(Cc3ccccc3[N+](=O)[O-])nn2)c(C)c1 [3a5, N-((1-(2-nitrobenzyl)-1H-1,2,3-triazol-4-yl)methyl)-6-((4-cyanophenyl)amino)-4-(mesityloxy)nicotinamide]
SI IIIB (WT HIV-1 strain (IIIB) [1]): >3724 | SI RES056 [2]: X1

Cc1cc(C)c(Oc2cc(Nc3ccc(C#N)cc3)ncc2C(=O)NCc2cn(Cc3cccc(F)c3)nn2)c(C)c1 [3a7, N-((1-(3-fluorobenzyl)-1H-1,2,3-triazol-4-yl)methyl)-6-((4-cyanophenyl)amino)-4-(mesityloxy)nicotinamide]
SI IIIB (WT HIV-1 strain (IIIB) [1]): ≥2608

Cc1cc(C)c(Oc2cc(Nc3ccc(C#N)cc3)ncc2C(=O)NCc2cn(Cc3cccc(C#N)c3)nn2)c(C)c1 [3a9, N-((1-(3-cyanobenzyl)-1H-1,2,3-triazol-4-yl)methyl)-6-((4-cyanophenyl)amino)-4-(mesityloxy)nicotinamide]
SI IIIB (WT HIV-1 strain (IIIB) [1]): ≥5213

Cc1cc(C)c(Oc2cc(Nc3ccc(C#N)cc3)ncc2C(=O)NCc2cn(Cc3cccc([N+](=O)[O-])c3)nn2)c(C)c1 [3a10, N-((1-(3-nitrobenzyl)-1H-1,2,3-triazol-4-yl)methyl)-6-((4-cyanophenyl)amino)-4-(mesityloxy)nicotinamide]
SI IIIB (WT HIV-1 strain (IIIB) [1]): ≥4220

Cc1cc(C)c(Oc2cc(Nc3ccc(C#N)cc3)ncc2C(=O)NCc2cn(Cc3ccc(F)cc3)nn2)c(C)c1 [3a12, N-((1-(4-fluorobenzyl)-1H-1,2,3-triazol-4-yl)methyl)-6-((4-cyanophenyl)amino)-4-(mesityloxy)nicotinamide]
SI IIIB (WT HIV-1 strain (IIIB) [1]): ≥2056

Cc1cc(C)c(Oc2cc(Nc3ccc(C#N)cc3)ncc2C(=O)NCc2cn(Cc3ccc(Cl)cc3)nn2)c(C)c1 [3a13, N-((1-(4-chlorobenzyl)-1H-1,2,3-triazol-4-yl)methyl)-6-((4-cyanophenyl)amino)-4-(mesityloxy)nicotinamide]
SI IIIB (WT HIV-1 strain (IIIB) [1]): ≥620

Cc1cc(C)c(Oc2cc(Nc3ccc(C#N)cc3)ncc2C(=O)NCc2cn(Cc3ccc([N+](=O)[O-])cc3)nn2)c(C)c1 [3a14, N-((1-(4-nitrobenzyl)-1H-1,2,3-triazol-4-yl)methyl)-6-((4-cyanophenyl)amino)-4-(mesityloxy)nicotinamide]
SI IIIB (WT HIV-1 strain (IIIB) [1]): ≥3498

Cc1cc(C)c(Oc2cc(Nc3ccc(C#N)cc3)ncc2C(=O)NCc2cn(CCCO)nn2)c(C)c1 [3b1, 6-((4-cyanophenyl)amino)-N-((1-(3-hydroxypropyl)-1H-1,2,3-triazol-4-yl)methyl)-4-(mesityloxy)nicotinamide]
EC50 RES056 [2]: low micromolar concentration

Cc1cc(C)c(Oc2cc(Nc3ccc(C#N)cc3)ncc2C(=O)NCc2cn(CCC#N)nn2)c(C)c1 [3b2, N-((1-(2-cyanoethyl)-1H-1,2,3-triazol-4-yl)methyl)-6-((4-cyanophenyl)amino)-4-(mesityloxy)nicotinamide]
SI IIIB (WT HIV-1 strain (IIIB) [1]): 2044 | EC50 RES056 [2]: low micromolar concentration

CC(=O)Cn1cc(CNC(=O)c2cnc(Nc3ccc(C#N)cc3)cc2Oc2c(C)cc(C)cc2C)nn1 [3b3, 6-((4-cyanophenyl)amino)-4-(mesityloxy)-N-((1-(2-oxopropyl)-1H-1,2,3-triazol-4-yl)methyl)nicotinamide]
EC50 RES056 [2]: low micromolar concentration

Cc1cc(C)c(Oc2cc(Nc3ccc(C#N)cc3)ncc2C(=O)NCc2cn(CC(N)=O)nn2)c(C)c1 [3b7, N-((1-(2-amino-2-oxoethyl)-1H-1,2,3-triazol-4-yl)methyl)-6-((4-cyanophenyl)amino)-4-(mesityloxy)nicotinamide]
EC50 RES056 [2]: low micromolar concentration

Cc1cc(C)c(Oc2cc(Nc3ccc(C#N)cc3)ncc2C(=O)NCc2cn(CC(=O)N3CCCC3)nn2)c(C)c1 [3b8, 6-((4-cyanophenyl)amino)-4-(mesityloxy)-N-((1-(2-oxo-2-(pyrrolidin-1-yl)ethyl)-1H-1,2,3-triazol-4-yl)methyl)nicotinamide]
EC50 RES056 [2]: low micromolar concentration

Cc1cc(C)c(Oc2cc(Nc3ccc(C#N)cc3)ncc2C(=O)NCc2cn(CC(=O)N3CCOCC3)nn2)c(C)c1 [3b9, 6-((4-cyanophenyl)amino)-4-(mesityloxy)-N-((1-(2-morpholino-2-oxoethyl)-1H-1,2,3-triazol-4-yl)methyl)nicotinamide]
SI (wild-type HIV-1 (NL4-3)): >10.8 | SI IIIB (WT HIV-1 strain (IIIB) [1]): 9279 | EC50 RES056 [2]: low micromolar concentration

Cc1cn([C@H]2C[C@H](N=[N+]=[N-])[C@@H](CO)O2)c(=O)[nH]c1=O [AZT, Zidovudine]
Resistance Folds Y181C ([3]; ratio of EC50 against mutant strain/EC50 against WT strain): 1.0 | EC50 ([4]; Human immunodeficiency virus 1, MT4, read-out: EC50 E138K): 13 ± 4 nM

CC(C)Nc1cccnc1N1CCN(C(=O)c2cc3cc(NS(C)(=O)=O)ccc3[nH]2)CC1 [DLV, Delavirdine]
SI L100I ([5]; ratio of CC50/EC50, MT-4 cells): 14 | SI Y188L ([6]; ratio of CC50/EC50, MT-4 cells): 44 | CC50 at 5 days [7]: 36800 nM | SI Y181C ([3]; ratio of CC50/EC50, MT-4 cells): 15 | SI E138K ([4]; ratio of CC50/EC50, MT-4 cells): 715 | SI K103 N [8]: 12 | SI F227L + V106A ([9]; ratio of CC50/EC50, MT-4 cells): 16

O=C1Nc2ccc(Cl)cc2[C@@](C#CC2CC2)(C(F)(F)F)O1 [EFV, Efavirenz]
EC50 [6]: 340 ± 10 nM | EC50 ([9]; Human immunodeficiency virus 1, MT4, read-out: EC50 F227L + V106A): 210 ± 8 nM

Cc1cc(C#N)cc(C)c1Oc1nc(Nc2ccc(C#N)cc2)nc(N)c1Br [ETR, Etravirine]
CC50 at 5 days [7]: 2460 nM

C#CCNC(=O)c1cnc(Nc2ccc(C#N)cc2)cc1Oc1c(C)cc(C)cc1C [L-6b5, 6-((4-cyanophenyl)amino)-4-(mesityloxy)-N-(prop-2-yn-1-yl)nicotinamide]
SI IIIB (WT HIV-1 strain (IIIB) [10]; ratio of CC50/EC50): 2471 | EC50 (WT HIV-1 strain (IIIB) [10]; read-out: EC50 IIIB, MT-4 cells): 29 ± 5 nM | CC50 (MT-4 cells): 73000 ± 26900 nM | SI RES056 ([11]; ratio of CC50/EC50): 12 | EC50 ([11]; read-out: EC50 RES056, MT-4 cells): 6100 ± 540 nM

Cc1ccnc2c1NC(=O)c1cccnc1N2C1CC1 [NVP, Nevirapine]
EC50 ([5]; Human immunodeficiency virus 1, MT4, read-out: EC50 L100I): 830 ± 320 nM | EC50 [6]: 9610 ± 1860 nM

CCOc1ccnc(CCNC(=S)Nc2ccc(Cl)cn2)c1F [PETT-2]
IC50 (HIV-1 RT): 5 nM
